For test [1], the target named is B-Raf (Homo sapiens, UniProt P15056). In words: Luciferase-coupled chemiluminescence kinase assay (ATP consumption), B-Raf. Type of test: biochemical. The note with it: read-out: bRaf (inhibition indicated as IC50). Summed up:
(§1)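 Compound is first mixed with […] Raf enzyme in 20 mM Tris pH 7.5 containing 10 mM MgCl2, 0.03% TX-100 and 1 mM DTT (30 min, room temperature). ATP then starts a 3 h reaction, and unconsumed ATP is detected by chemiluminescence.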

The target in test [2] is c-Raf (Homo sapiens, UniProt P04049). Briefly: Luciferase-coupled chemiluminescence kinase assay (ATP consumption), c-Raf. Type of test: biochemical. The note with it: read-out: cRaf-1 (inhibition indicated as IC50). Summed up: as §1

Experimental findings from US7846959B2, “Raf modulators and methods of use” (Exelixis, Inc., priority 2004, dated 2010) are described below.

Bounds are passed on as bounds.

Chain of c-Raf (P04049 whole entry): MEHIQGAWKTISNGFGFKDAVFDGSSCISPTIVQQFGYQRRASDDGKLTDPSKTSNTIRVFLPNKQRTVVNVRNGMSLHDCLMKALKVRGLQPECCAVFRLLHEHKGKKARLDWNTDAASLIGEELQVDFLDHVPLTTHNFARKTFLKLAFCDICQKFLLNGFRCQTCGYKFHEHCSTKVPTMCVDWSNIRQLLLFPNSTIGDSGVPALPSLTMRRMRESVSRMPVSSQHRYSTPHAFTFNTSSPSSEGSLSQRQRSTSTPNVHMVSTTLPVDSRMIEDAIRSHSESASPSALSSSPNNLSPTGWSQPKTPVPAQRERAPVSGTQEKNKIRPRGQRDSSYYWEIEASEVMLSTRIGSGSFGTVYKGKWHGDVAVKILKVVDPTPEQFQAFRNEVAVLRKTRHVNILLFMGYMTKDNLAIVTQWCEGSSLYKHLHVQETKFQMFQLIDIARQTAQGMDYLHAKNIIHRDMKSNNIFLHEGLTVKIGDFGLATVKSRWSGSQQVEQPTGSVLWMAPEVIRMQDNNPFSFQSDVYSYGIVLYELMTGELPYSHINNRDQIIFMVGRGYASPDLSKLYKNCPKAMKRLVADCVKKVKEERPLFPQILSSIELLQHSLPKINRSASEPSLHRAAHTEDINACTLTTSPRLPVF
Chain of B-Raf (P15056 whole entry): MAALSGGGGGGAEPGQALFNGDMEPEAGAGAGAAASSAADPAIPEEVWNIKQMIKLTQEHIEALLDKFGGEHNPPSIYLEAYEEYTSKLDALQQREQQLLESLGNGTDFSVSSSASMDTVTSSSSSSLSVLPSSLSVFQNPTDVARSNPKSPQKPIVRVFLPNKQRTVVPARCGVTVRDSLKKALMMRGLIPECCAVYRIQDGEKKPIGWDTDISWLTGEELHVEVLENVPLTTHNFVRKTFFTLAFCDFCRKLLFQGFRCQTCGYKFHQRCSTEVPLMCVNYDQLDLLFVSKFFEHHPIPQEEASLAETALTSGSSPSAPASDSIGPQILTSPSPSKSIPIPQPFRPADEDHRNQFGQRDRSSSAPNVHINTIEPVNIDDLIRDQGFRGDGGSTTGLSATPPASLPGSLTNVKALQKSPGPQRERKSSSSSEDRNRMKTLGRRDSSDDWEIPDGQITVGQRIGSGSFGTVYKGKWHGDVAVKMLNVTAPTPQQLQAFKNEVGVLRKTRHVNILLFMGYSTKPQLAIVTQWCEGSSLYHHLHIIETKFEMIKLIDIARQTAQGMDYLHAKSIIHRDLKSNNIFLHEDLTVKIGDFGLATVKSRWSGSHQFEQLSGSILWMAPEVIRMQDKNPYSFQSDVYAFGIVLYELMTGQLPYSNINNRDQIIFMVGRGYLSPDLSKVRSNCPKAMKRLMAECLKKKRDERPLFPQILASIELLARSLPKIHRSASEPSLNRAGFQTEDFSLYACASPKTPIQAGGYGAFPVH

In the case of `COC(=O)Nc1nc2cc(C3(O)c4ccccc4C(=O)N3c3cccc(N(C)C4CCCCC4)c3)ccc2[nH]1` (centres unmarked) [Entry 311, methyl [5-(2-{3-[cyclohexyl(methyl)amino]phenyl}-1-hydroxy-3-oxo-2,3-dihydro-1H-isoindol-1-yl)-1H-benzimidazol-2-yl]carbamate], the IC50 in test [1] and in test [2] was less than 100 nM each time.

Turning to `O=C(Nc1nc2ccc(C3(O)c4ccccc4C(=O)N3c3cccc(Cl)c3F)cc2[nH]1)OCC1CC2CCC(C1)N2` (centres unmarked) [Entry 312, 8-azabicyclo[3.2.1]oct-3-ylmethyl {6-[2-(3-chloro-2-fluorophenyl)-1-hydroxy-3-oxo-2,3-dihydro-1H-isoindol-1-yl]-1H-benzimidazol-2-yl}carbamate], the IC50 in test [1] and in test [2] was less than 100 nM each time.

With `COC(=O)Nc1nc2ccc(C3CCC(=O)N3c3cccc(Br)c3)cc2[nH]1` (centres unmarked) [Entry 313, methyl {6-[1-(3-bromophenyl)-5-oxopyrrolidin-2-yl]-1H-benzimidazol-2-yl}carbamate], the IC50 in test [1] and in test [2] was 1000 to 10000 nM throughout.

For `CN1CCC(COC(=O)Nc2nc3cc(C4(O)c5ccccc5C(=O)N4Cc4ccccc4)ccc3[nH]2)CC1` (centres unmarked) [Entry 314, (1-methylpiperidin-4-yl)methyl {5-[1-hydroxy-3-oxo-2-(phenylmethyl)-2,3-dihydro-1H-isoindol-1-yl]-1H-benzimidazol-2-yl}carbamate], the IC50 in test [1] and in test [2] was less than 100 nM throughout.

Turning to `CC(C)(C)OC(=O)N1CCC(COC(=O)Nc2nc3cc(C4(O)c5ccccc5C(=O)N4Cc4ccccc4)ccc3[nH]2)CC1` (centres unmarked) [Entry 315, 1,1-dimethylethyl 4-({[({5-[1-hydroxy-3-oxo-2-(phenylmethyl)-2,3-dihydro-1H-isoindol-1-yl]-1H-benzimidazol-2-yl}amino)carbonyl]oxy}methyl)piperidine-1-carboxylate], the 50% inhibitory concentration (IC50) in test [1] and in test [2] was 100 to 1000 nM in each case.

As for `CN1CCC(COC(=O)Nc2nc3cc(C4(O)c5ccccc5C(=O)N4c4cccc(Cl)c4F)ccc3[nH]2)CC1` (centres unmarked) [Entry 316, (1-methylpiperidin-4-yl)methyl {5-[2-(3-chloro-2-fluorophenyl)-1-hydroxy-3-oxo-2,3-dihydro-1H-isoindol-1-yl]-1H-benzimidazol-2-yl}carbamate], the IC50 in test [1] and in test [2] was less than 100 nM each time.

Consider `CN1CCC(CCOC(=O)Nc2nc3cc(C4(O)c5ccccc5C(=O)N4c4cccc(Cl)c4F)ccc3[nH]2)CC1` (centres unmarked) [Entry 317, 2-(1-methylpiperidin-4-yl)ethyl {5-[2-(3-chloro-2-fluorophenyl)-1-hydroxy-3-oxo-2,3-dihydro-1H-isoindol-1-yl]-1H-benzimidazol-2-yl}carbamate], for which the IC50 in test [1] and in test [2] was less than 100 nM throughout.

As to `COC(=O)C(=O)Nc1nc2ccc(C3(O)c4ccccc4C(=O)N3c3cccc(Cl)c3F)cc2[nH]1` (centres unmarked) [Entry 318, methyl ({6-[2-(3-chloro-2-fluorophenyl)-1-hydroxy-3-oxo-2,3-dihydro-1H-isoindol-1-yl]-1H-benzimidazol-2-yl}amino)(oxo)acetate], the IC50 in test [1] and in test [2] was 1000 to 10000 nM throughout.

With `O=C(CCCN1CCCCC1)Nc1nc2cc(C3(O)c4ccccc4C(=O)N3c3cccc(Oc4ccccc4)c3)ccc2[nH]1` (centres unmarked) [Entry 319, N-(5-{1-hydroxy-3-oxo-2-[3-(phenyloxy)phenyl]-2,3-dihydro-1H-isoindol-1-yl}-1H-benzimidazol-2-yl)-4-piperidin-1-ylbutanamide], the IC50 in test [1] and in test [2] was less than 100 nM throughout.

Turning to `COC(=O)Nc1nc2ccc(C3(C)c4ccccc4C(=O)N3c3cccc(Br)c3)cc2[nH]1` (centres unmarked) [Entry 320, methyl {6-[2-(3-bromophenyl)-1-methyl-3-oxo-2,3-dihydro-1H-isoindol-1-yl]-1H-benzimidazol-2-yl}carbamate], the IC50 in test [1] and in test [2] was less than 100 nM throughout.

For the molecule `CCN(CC)CC#CCOC(=O)Nc1nc2ccc(C3(O)c4ccccc4C(=O)N3c3cccc(Cl)c3F)cc2[nH]1` (centres unmarked) [Entry 321, 4-(diethylamino)but-2-yn-1-yl {6-[2-(3-chloro-2-fluorophenyl)-1-hydroxy-3-oxo-2,3-dihydro-1H-isoindol-1-yl]-1H-benzimidazol-2-yl}carbamate], the IC50 in test [1] and in test [2] was less than 100 nM each time.

For the molecule `COC(=O)Nc1nc2cc(C3(O)c4ccccc4C(=O)N3c3c(F)ccc(Cl)c3F)ccc2[nH]1` (centres unmarked) [Entry 322, methyl {5-[2-(3-chloro-2,6-difluorophenyl)-1-hydroxy-3-oxo-2,3-dihydro-1H-isoindol-1-yl]-1H-benzimidazol-2-yl}carbamate], the IC50 in test [1] and in test [2] was less than 100 nM throughout.

As for `O=C(Nc1nc2ccc(C3(O)c4ccccc4C(=O)N3c3cccc(Cl)c3F)cc2[nH]1)OCCN1CCCC1=O` (centres unmarked) [Entry 323, 2-(2-oxopyrrolidin-1-yl)ethyl {6-[2-(3-chloro-2-fluorophenyl)-1-hydroxy-3-oxo-2,3-dihydro-1H-isoindol-1-yl]-1H-benzimidazol-2-yl}carbamate], the IC50 in test [1] and in test [2] was less than 100 nM each time.

With `O=C(Nc1nc2ccc(C3(O)c4ccccc4C(=O)N3c3cccc(Cl)c3F)cc2[nH]1)OCCN1C(=O)CCC1=O` (centres unmarked) [Entry 324, 2-(2,5-dioxopyrrolidin-1-yl)ethyl {6-[2-(3-chloro-2-fluorophenyl)-1-hydroxy-3-oxo-2,3-dihydro-1H-isoindol-1-yl]-1H-benzimidazol-2-yl}carbamate], the IC50 in test [1] and in test [2] was less than 100 nM in each case.

On to `O=C(Nc1nc2cc(C3(O)c4ccccc4C(=O)N3c3cccc(Cl)c3F)ccc2[nH]1)OC1CC(F)(F)C1(F)F` (centres unmarked) [Entry 325, 2,2,3,3-tetrafluorocyclobutyl {5-[2-(3-chloro-2-fluorophenyl)-1-hydroxy-3-oxo-2,3-dihydro-1H-isoindol-1-yl]-1H-benzimidazol-2-yl}carbamate], for which the concentration for half-maximal inhibition (IC50) in test [1] and in test [2] was less than 100 nM in each case.

Take `CC(=O)N1CCC(C(=O)Nc2nc3cc(C4(O)c5ccccc5C(=O)N4c4cccc(Cl)c4F)ccc3[nH]2)CC1` (centres unmarked) [Entry 326, 1-acetyl-N-{5-[2-(3-chloro-2-fluorophenyl)-1-hydroxy-3-oxo-2,3-dihydro-1H-isoindol-1-yl]-1H-benzimidazol-2-yl}piperidine-4-carboxamide]: the IC50 in test [1] and in test [2] was less than 100 nM throughout.

On to `O=C(Nc1nc2cc(C3(O)c4ccccc4C(=O)N3c3cccc(Cl)c3F)ccc2[nH]1)C1CCC1` (centres unmarked) [Entry 327, N-{5-[2-(3-chloro-2-fluorophenyl)-1-hydroxy-3-oxo-2,3-dihydro-1H-isoindol-1-yl]-1H-benzimidazol-2-yl}cyclobutanecarboxamide], for which the IC50 in test [1] and in test [2] was less than 100 nM in each case.

As to `CCN(c1ccccc1)c1cccc(N2C(=O)c3ccccc3C2(O)c2ccc3[nH]c(NC(=O)OC)nc3c2)c1` (centres unmarked) [Entry 328, methyl [5-(2-{3-[ethyl(phenyl)amino]phenyl}-1-hydroxy-3-oxo-2,3-dihydro-1H-isoindol-1-yl)-1H-benzimidazol-2-yl]carbamate], the IC50 in test [1] and in test [2] was 100 to 1000 nM each time.

Consider `O=C(Nc1nc2ccc(C3(O)c4ccccc4C(=O)N3c3cccc(Cl)c3F)cc2[nH]1)C1CC1(F)F` (centres unmarked) [Entry 329, N-{6-[2-(3-chloro-2-fluorophenyl)-1-hydroxy-3-oxo-2,3-dihydro-1H-isoindol-1-yl]-1H-benzimidazol-2-yl}-2,2-difluorocyclopropanecarboxamide], for which the IC50 in test [1] and in test [2] was less than 100 nM each time.

As for `O=C(Nc1nc2ccc(C3(O)c4ccccc4C(=O)N3c3cccc(Cl)c3F)cc2[nH]1)OC1CCC1` (centres unmarked) [Entry 330, cyclobutyl {6-[2-(3-chloro-2-fluorophenyl)-1-hydroxy-3-oxo-2,3-dihydro-1H-isoindol-1-yl]-1H-benzimidazol-2-yl}carbamate], the IC50 in test [1] and in test [2] was less than 100 nM each time.

As to `O=C(Nc1nc2ccc(C3(O)c4ccccc4C(=O)N3c3cccc(Cl)c3F)cc2[nH]1)OCC(F)F` (centres unmarked) [Entry 331, 2,2-difluoroethyl {6-[2-(3-chloro-2-fluorophenyl)-1-hydroxy-3-oxo-2,3-dihydro-1H-isoindol-1-yl]-1H-benzimidazol-2-yl}carbamate], the concentration for half-maximal inhibition (IC50) in test [1] and in test [2] was less than 100 nM in each case.

Turning to `O=C1c2ccccc2C(O)(c2ccc3[nH]c(Nc4ccccn4)nc3c2)N1c1cccc(Cl)c1F` (centres unmarked) [Entry 332, 2-(3-chloro-2-fluorophenyl)-3-hydroxy-3-[2-(pyridin-2-ylamino)-1H-benzimidazol-5-yl]-2,3-dihydro-1H-isoindol-1-one], the IC50 in test [1] and in test [2] was less than 100 nM each time.

In the case of `CC(C)OC(=O)Nc1nc2ccc(C3(O)c4ccccc4C(=O)N3c3cccc(Cl)c3F)cc2[nH]1` (centres unmarked) [Entry 333, 1-methylethyl {6-[2-(3-chloro-2-fluorophenyl)-1-hydroxy-3-oxo-2,3-dihydro-1H-isoindol-1-yl]-1H-benzimidazol-2-yl}carbamate], the IC50 in test [1] and in test [2] was less than 100 nM throughout.

Take `O=C(Nc1nc2ccc(C3(O)c4ccccc4C(=O)N3c3cccc(Cl)c3F)cc2[nH]1)OCC1CC1` (centres unmarked) [Entry 334, cyclopropylmethyl {6-[2-(3-chloro-2-fluorophenyl)-1-hydroxy-3-oxo-2,3-dihydro-1H-isoindol-1-yl]-1H-benzimidazole-2-yl}carbamate]: the IC50 in test [1] and in test [2] was less than 100 nM each time.

On to `O=C(Nc1nc2cc(C3(O)c4ccccc4C(=O)N3c3cccc(Cl)c3F)ccc2[nH]1)C1CC1` (centres unmarked) [Entry 335, N-{5-[2-(3-chloro-2-fluorophenyl)-1-hydroxy-3-oxo-2,3-dihydro-1H-isoindol-1-yl]-1H-benzimidazol-2-yl}cyclopropanecarboxamide], for which the IC50 in test [1] and in test [2] was less than 100 nM throughout.

As a reminder, the IC50 is the concentration that gives 50% inhibition.
